{"source": "patent US20030133987A1", "about": "“Drug nanoparticles from template emulsions” (priority 2002, published 2003)", "test": "In-vitro dissolution, standard protocol according to USP 24 monographs", "assay_type": "physicochemical", "conditions": "HPLC or UV/VIS detection, control (drug as received) in parenthesis", "protocol": "The dissolution progress was measured after 5, 10, 15, and 60 minutes using either High Pressure Liquid Chromatography (HPLC) or UV/VIS detection as the analytical tools. […] For comparison, the corresponding data for the controls are given in parenthesis."}
{"molecule": "CC(=O)N1CCN(c2ccc(OCC3COC(Cn4ccnc4)(c4ccc(Cl)cc4Cl)O3)cc2)CC1", "note": "(stereo not shown) [Ketoconazole, ketoconazole]", "values": [{"measurement": "percent of dissolved sample, 5 min", "setting": "5 min", "result": 31, "unit": "%"}, {"measurement": "percent of dissolved sample, 10 min", "setting": "10 min", "result": 41, "unit": "%"}, {"measurement": "percent of dissolved sample, 15 min", "setting": "15 min", "result": 48, "unit": "%"}, {"measurement": "percent of dissolved sample, 60 min", "setting": "60 min", "result": "(100%)"}]}
